Laboratory results as given in patent US20090156577A1, “7-AMINO ALKYLIDENYL-HETEROCYCLIC QUINOLONES AND NAPHTHYRIDONES” (priority 2004, published 2009).
Values after ≈ are worked out from the molar mass of the structure shown. Read-outs that look alike come from different tables or passages of the source.

Test system: pathogenic bacteria
Test: MIC by microdilution broth method (NCCLS M7-A4), in vitro antibacterial activity
Format: cell-based
Summary of the method: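 Broth microdilution per NCCLS M7-A4: two-fold serial dilutions in cation-adjusted Mueller-Hinton broth, inoculum about 5×10^4 CFU/well. Trays incubated 16–20 h at 35 °C. MIC read by comparing growth against no-compound growth controls.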

[1] = Staphylococcus aureus, Organism A: Staphylococcus aureus OC4172, read-out: MIC
[2] = Streptococcus pneumoniae, ATCC49619, Organism E: Streptococcus pneumoniae ATCC 49619, read-out: MIC
[3] = Streptococcus pneumoniae, Organism C: fluoroquinolone-resistant clinical isolate of Streptococcus pneumoniae (QRDR amino acid substitutions)
[4] = Streptococcus pneumoniae, Organism D: fluoroquinolone-resistant clinical isolate of Streptococcus pneumoniae (QRDR amino acid substitutions)
[5] = Streptococcus pneumoniae, Organism B: fluoroquinolone-resistant clinical isolate of Streptococcus pneumoniae (QRDR amino acid substitutions)

Row | Structure (SMILES) | MIC [1] | MIC [2] | MIC [3] | MIC [4] | MIC [5]
1 | COc1c(N2CCC/C(=C\CN)C2)c(F)cc2c(=O)c(C(=O)O)cn(C3CC3)c12 [Compound 390, (E)-7-[3-(2-Amino-ethylidene)-piperidin-1-yl]-1-cyclopropyl-6-fluoro-8-methoxy-4-oxo-1,4-dihydro-quinoline-3-carboxylic acid] | 0.06 µg/mL (≈ 0.149 µM) | 0.5 µg/mL (≈ 1.25 µM) | 2 µg/mL (≈ 4.98 µM) | 4 µg/mL (≈ 9.96 µM) | –
2 | COc1c(N2CC(=C(C)CN)C2)c(F)cc2c(=O)c(C(=O)O)cn(C3CC3)c12 [Compound 391, 7-[3-(2-Amino-1-methyl-ethylidene)-azetidin-1-yl]-1-cyclopropyl-6-fluoro-8-methoxy-4-oxo-1,4-dihydro-quinoline-3-carboxylic acid] | 0.06 µg/mL (≈ 0.155 µM) | 2 µg/mL (≈ 5.16 µM) | > 16 µg/mL | 8 µg/mL (≈ 20.6 µM) | 8 µg/mL (≈ 20.6 µM)
3 | COc1c(N2CCC/C(=C(/C)CN)C2)c(F)cc2c(=O)c(C(=O)O)cn(C3CC3)c12 [Compound 392, (E)-7-[3-(2-Amino-1-methyl-ethylidene)-piperidin-1-yl]-1-cyclopropyl-6-fluoro-8-methoxy-4-oxo-1,4-dihydro-quinoline-3-carboxylic acid] | 0.25 µg/mL (≈ 0.602 µM) | 1 µg/mL (≈ 2.41 µM) | > 16 µg/mL | 8 µg/mL (≈ 19.3 µM) | 16 µg/mL (≈ 38.5 µM)
4 | COc1c(N2CCC/C(=C(/Cl)CN)CC2)c(F)cc2c(=O)c(C(=O)O)cn(C3CC3)c12 [Compound 393, (Z)-7-[4-(2-Amino-1-chloro-ethylidene)-azepan-1-yl]-1-cyclopropyl-6-fluoro-8-methoxy-4-oxo-1,4-dihydro-quinoline-3-carboxylic acid] | 0.25 µg/mL (≈ 0.556 µM) | 0.5 µg/mL (≈ 1.11 µM) | 8 µg/mL (≈ 17.8 µM) | 2 µg/mL (≈ 4.45 µM) | –
5 | COc1c(N2CCC/C(=C(\Cl)CN)CC2)c(F)cc2c(=O)c(C(=O)O)cn(C3CC3)c12 [Compound 394, (E)-7-[4-(2-Amino-1-chloro-ethylidene)-azepan-1-yl]-1-cyclopropyl-6-fluoro-8-methoxy-4-oxo-1,4-dihydro-quinoline-3-carboxylic acid] | 0.03 µg/mL (≈ 0.0667 µM) | 0.5 µg/mL (≈ 1.11 µM) | 4 µg/mL (≈ 8.89 µM) | 1 µg/mL (≈ 2.22 µM) | 1 µg/mL (≈ 2.22 µM)
6 | NC/C(F)=C1\CCCN(c2c(F)cc3c(=O)c(C(=O)O)cn(C4CC4)c3c2OC(F)F)C1 [Compound 395, (Z)-7-[3-(2-Amino-1-fluoro-ethylidene)-piperidin-1-yl]-1-cyclopropyl-8-difluoromethoxy-6-fluoro-4-oxo-1,4-dihydro-quinoline-3-carboxylic acid] | 0.06 µg/mL (≈ 0.132 µM) | 0.5 µg/mL (≈ 1.1 µM) | 8 µg/mL (≈ 17.6 µM) | 0.5 µg/mL (≈ 1.1 µM) | 4 µg/mL (≈ 8.78 µM)
7 | NC/C=C1/CCCN(c2c(F)cc3c(=O)c(C(=O)O)cn(C4CC4)c3c2OC(F)F)C1 [Compound 396, (Z)-7-[3-(2-Amino-ethylidene)-piperidin-1-yl]-1-cyclopropyl-8-difluoromethoxy-6-fluoro-4-oxo-1,4-dihydro-quinoline-3-carboxylic acid] | 0.03 µg/mL (≈ 0.0686 µM) | 0.25 µg/mL (≈ 0.572 µM) | 4 µg/mL (≈ 9.14 µM) | 0.5 µg/mL (≈ 1.14 µM) | 2 µg/mL (≈ 4.57 µM)
8 | NC/C=C1\CCCN(c2c(F)cc3c(=O)c(C(=O)O)cn(C4CC4)c3c2OC(F)F)C1 [Compound 397, (E)-7-[3-(2-Amino-ethylidene)-piperidin-1-yl]-1-cyclopropyl-8-difluoromethoxy-6-fluoro-4-oxo-1,4-dihydro-quinoline-3-carboxylic acid] | 0.06 µg/mL (≈ 0.137 µM) | 0.5 µg/mL (≈ 1.14 µM) | 8 µg/mL (≈ 18.3 µM) | 2 µg/mL (≈ 4.57 µM) | –
9 | C[C@H]1COc2c(N3CCC/C(=C(\F)CN)C3)c(F)cc3c(=O)c(C(=O)O)cn1c23 [Compound 398, (E)-9-[3-(2-Amino-1-fluoro-ethylidene)-piperidin-1-yl]-8-fluoro-(3S)-3-methyl-6-oxo-2,3-dihydro-6H-1-oxa-3a-aza-phenalene-5-carboxylic acid] | ≤ 0.015 µg/mL | 0.03 µg/mL (≈ 0.074 µM) | 0.5 µg/mL (≈ 1.23 µM) | 1 µg/mL (≈ 2.47 µM) | 0.25 µg/mL (≈ 0.617 µM)
10 | C[C@H]1COc2c(N3CCC/C(=C(/F)CN)C3)c(F)cc3c(=O)c(C(=O)O)cn1c23 [Compound 399, (Z)-9-[3-(2-Amino-1-fluoro-ethylidene)-piperidin-1-yl]-8-fluoro-(3S)-3-methyl-6-oxo-2,3-dihydro-6H-1-oxa-3a-aza-phenalene-5-carboxylic acid] | 0.5 µg/mL (≈ 1.23 µM) | 2 µg/mL (≈ 4.93 µM) | > 16 µg/mL | > 16 µg/mL | 4 µg/mL (≈ 9.87 µM)
11 | C[C@H]1COc2c(N3CCC/C(=C(\Cl)CN)C3)c(F)cc3c(=O)c(C(=O)O)cn1c23 [Compound 400, (E)-9-[3-(2-Amino-1-chloro-ethylidene)-piperidin-1-yl]-8-fluoro-(3S)-3-methyl-6-oxo-2,3-dihydro-6H-1-oxa-3a-aza-phenalene-5-carboxylic acid] | ≤ 0.015 µg/mL | 0.06 µg/mL (≈ 0.142 µM) | 0.5 µg/mL (≈ 1.19 µM) | 0.5 µg/mL (≈ 1.19 µM) | 0.25 µg/mL (≈ 0.593 µM)
12 | C[C@H]1COc2c(N3CCC/C(=C\CN)C3)c(F)cc3c(=O)c(C(=O)O)cn1c23 [Compound 401, (E)-9-[3-(2-Amino-ethylidene)-piperidin-1-yl]-8-fluoro-(3S)-3-methyl-6-oxo-2,3-dihydro-6H-1-oxa-3a-aza-phenalene-5-carboxylic acid] | 1 µg/mL (≈ 2.58 µM) | 8 µg/mL (≈ 20.6 µM) | > 16 µg/mL | > 16 µg/mL | –
13 | C[C@H]1COc2c(N3CCC/C(=C/CN)C3)c(F)cc3c(=O)c(C(=O)O)cn1c23 [Compound 402, (Z)-9-[3-(2-Amino-ethylidene)-piperidin-1-yl]-8-fluoro-(3S)-3-methyl-6-oxo-2,3-dihydro-6H-1-oxa-3a-aza-phenalene-5-carboxylic acid] | 0.25 µg/mL (≈ 0.645 µM) | 2 µg/mL (≈ 5.16 µM) | > 16 µg/mL | > 16 µg/mL | 16 µg/mL (≈ 41.3 µM)
14 | C/C(CN)=C1\CCCN(c2c(F)cc3c(=O)c(C(=O)O)cn4c3c2OC[C@@H]4C)C1 [Compound 404, (Z)-9-[3-(2-Amino-1-methyl-ethylidene)-piperidin-1-yl]-8-fluoro-(3S)-3-methyl-6-oxo-2,3-dihydro-6H-1-oxa-3a-aza-phenalene-5-carboxylic acid] | 0.12 µg/mL (≈ 0.299 µM) | 0.5 µg/mL (≈ 1.25 µM) | 16 µg/mL (≈ 39.9 µM) | > 16 µg/mL | 4 µg/mL (≈ 9.96 µM)
15 | COc1c(N2CCC/C(=C(\F)CN)C2)c(F)cc2c(=O)c(C(=O)O)cn([C@@H]3C[C@@H]3F)c12 [Compound 405, (E)-7-[3-(2-Amino-1-fluoro-ethylidene)-piperidin-1-yl]-6-fluoro-(1R,2S)-1-(2-fluoro-cyclopropyl)-8-methoxy-4-oxo-1,4-dihydro-quinoline-3-carboxylic acid] | ≤ 0.015 µg/mL | ≤ 0.25 µg/mL | 0.25 µg/mL (≈ 0.572 µM) | 0.25 µg/mL (≈ 0.572 µM) | ≤ 0.12 µg/mL
16 | COc1c(N2CCC/C(=C(/F)CN)C2)c(F)cc2c(=O)c(C(=O)O)cn([C@@H]3C[C@@H]3F)c12 [Compound 406, (Z)-7-[3-(2-Amino-1-fluoro-ethylidene)-piperidin-1-yl]-6-fluoro-(1R,2S)-1-(2-fluoro-cyclopropyl)-8-methoxy-4-oxo-1,4-dihydro-quinoline-3-carboxylic acid] | 0.06 µg/mL (≈ 0.137 µM) | 0.5 µg/mL (≈ 1.14 µM) | 8 µg/mL (≈ 18.3 µM) | 2 µg/mL (≈ 4.57 µM) | 8 µg/mL (≈ 18.3 µM)
17 | COc1c(N2CCC/C(=C(\Cl)CN)C2)c(F)cc2c(=O)c(C(=O)O)cn([C@@H]3C[C@@H]3F)c12 [Compound 407, (E)-7-[3-(2-Amino-1-chloro-ethylidene)-piperidin-1-yl]-6-fluoro-(1R,2S)-1-(2-fluoro-cyclopropyl)-8-methoxy-4-oxo-1,4-dihydro-quinoline-3-carboxylic acid] | ≤ 0.015 µg/mL | 0.03 µg/mL (≈ 0.0661 µM) | 0.25 µg/mL (≈ 0.551 µM) | 0.12 µg/mL (≈ 0.264 µM) | 0.03 µg/mL (≈ 0.0661 µM)
18 | COc1c(N2CCC/C(=C/CN)C2)c(F)cc2c(=O)c(C(=O)O)cn([C@@H]3C[C@@H]3F)c12 [Compound 408, (Z)-7-[3-(2-Amino-ethylidene)-piperidin-1-yl]-6-fluoro-(1R,2S)-1-(2-fluoro-cyclopropyl)-8-methoxy-4-oxo-1,4-dihydro-quinoline-3-carboxylic acid] | 0.03 µg/mL (≈ 0.0715 µM) | 0.25 µg/mL (≈ 0.596 µM) | 2 µg/mL (≈ 4.77 µM) | 2 µg/mL (≈ 4.77 µM) | 1 µg/mL (≈ 2.38 µM)
19 | COc1c(N2CCC/C(=C\CN)C2)c(F)cc2c(=O)c(C(=O)O)cn([C@@H]3C[C@@H]3F)c12 [Compound 409, (E)-7-[3-(2-Amino-ethylidene)-piperidin-1-yl]-6-fluoro-(1R,2S)-1-(2-fluoro-cyclopropyl)-8-methoxy-4-oxo-1,4-dihydro-quinoline-3-carboxylic acid] | 0.12 µg/mL (≈ 0.286 µM) | 1 µg/mL (≈ 2.38 µM) | > 16 µg/mL | > 16 µg/mL | –
20 | COc1c(N2CCC/C(=C(\C)CN)C2)c(F)cc2c(=O)c(C(=O)O)cn([C@@H]3C[C@@H]3F)c12 [Compound 410, (Z)-7-[3-(2-Amino-1-methyl-ethylidene)-piperidin-1-yl]-6-fluoro-(1R,2S)-1-(2-fluoro-cyclopropyl)-8-methoxy-4-oxo-1,4-dihydro-quinoline-3-carboxylic acid] | ≤ 0.015 µg/mL | 0.06 µg/mL (≈ 0.138 µM) | 0.5 µg/mL (≈ 1.15 µM) | 1 µg/mL (≈ 2.31 µM) | –
21 | NC/C(F)=C1\CCCN(c2c(F)cc3c(=O)c(C(=O)O)cn(-c4nc(N)c(F)cc4F)c3c2Cl)C1 [Compound 411, (Z)-1-(6-Amino-3,5-difluoro-pyridin-2-yl)-7-[3-(2-amino-1-fluoro-ethylidene)-piperidin-1-yl]-8-chloro-6-fluoro-4-oxo-1,4-dihydro-quinoline-3-carboxylic acid] | 0.06 µg/mL (≈ 0.117 µM) | 1 µg/mL (≈ 1.95 µM) | > 16 µg/mL | 16 µg/mL (≈ 31.3 µM) | > 16 µg/mL
22 | NC/C(Cl)=C1/CCCN(c2c(F)cc3c(=O)c(C(=O)O)cn(-c4nc(N)c(F)cc4F)c3c2Cl)C1 [Compound 412, (E)-1-(6-Amino-3,5-difluoro-pyridin-2-yl)-7-[3-(2-amino-1-chloro-ethylidene)-piperidin-1-yl]8-chloro-6-fluoro-4-oxo-1,4-dihydro-quinoline-3-carboxylic acid] | 0.12 µg/mL (≈ 0.227 µM) | 1 µg/mL (≈ 1.89 µM) | > 16 µg/mL | 8 µg/mL (≈ 15.1 µM) | 16 µg/mL (≈ 30.3 µM)
